Among the data in BindingDB's records for doi:10.1158/0008-5472.can-03-2847 (The University of Birmingham, 2004) are Ki values, retold here.

In assay [1] the target is T1, Aldo-keto reductase family 1 member C3 (Homo sapiens, UniProt P42330).
T1 sequence (P42330 whole entry): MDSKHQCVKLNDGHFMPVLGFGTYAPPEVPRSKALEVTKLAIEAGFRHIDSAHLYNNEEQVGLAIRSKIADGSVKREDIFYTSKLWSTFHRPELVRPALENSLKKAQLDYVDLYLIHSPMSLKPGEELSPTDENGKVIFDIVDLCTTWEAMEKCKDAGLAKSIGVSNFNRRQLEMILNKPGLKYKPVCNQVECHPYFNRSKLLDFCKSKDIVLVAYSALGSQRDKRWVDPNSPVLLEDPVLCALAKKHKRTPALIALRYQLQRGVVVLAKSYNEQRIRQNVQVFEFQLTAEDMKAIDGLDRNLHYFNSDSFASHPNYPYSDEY
The experiment in a line: 3alpha-Androstanediol Oxidation Inhibition Assay. The note with it: pH 7; 30 °C.
Protocol: A fluorescence assay was used to determine the kinetic constants for the oxidation of 3alpha-androstanediol. The fluorescence emission of NADPH at 450 nm (5-nm slit width) with excitation at 340 nm (15-nm slit width) was monitored. A standard curve was constructed by monitoring fluorescence changes with incremental additions of NADPH. […] The type of inhibition and the inhibition constants were calculated using the Leonora program. All reactions were initiated by the addition of enzyme.

Assay [2] deals with T1, Aldo-keto reductase family 1 member C3. As to the kind of experiment: Androsterone Reduction Inhibition Assay. Conditions: pH 7; 30 °C.
Protocol: Enzyme activity was measured in the reductive direction against varying concentrations of androsterone. Initial velocities were measured by observing the rate of change of absorbance of pyridine nucleotide at 340 nm. Calculation of kcat and Km values used the Leonora program, yielding estimates of the kinetic constants. […] The type of inhibition and the inhibition constants were calculated using the Leonora program. All reactions were initiated by the addition of enzyme.

Turning to `O=C(O)c1ccccc1Nc1cccc(C(F)(F)F)c1` [2-{[3-(trifluoromethyl)phenyl]amino}benzoic acid], the Ki (in general, a dissociation constant, usually derived from enzyme kinetics or from competition with a known ligand) came out at 140 nM in assay [1] and 3100 nM in assay [2].
